Source: patent US12492188B2, “1H-benzo[D]imidazole derivatives as TLR9 inhibitors for the treatment of fibrosis” (BRISTOL-MYERS SQUIBB COMPANY, priority 2020, dated 2025)
Like-named read-outs stand apart in the source and are kept apart here.

Legend:
Type in all cases: cell-based
[1] = target: T1, human TLR8 (Homo sapiens, UniProt Q9NR97); test: TLR8 inhibition reporter assay (HEK-Blue cells, secreted embryonic alkaline phosphatase reporter); details: HEK-Blue cells overexpressing human TLR8, stimulated with R848 15.9 μM; read-out: TLR 8 IC50
T1 construct: host or cells: HEK-Blue cells (HEK293-derived reporter line)
T1 sequence (Q9NR97 27-1041): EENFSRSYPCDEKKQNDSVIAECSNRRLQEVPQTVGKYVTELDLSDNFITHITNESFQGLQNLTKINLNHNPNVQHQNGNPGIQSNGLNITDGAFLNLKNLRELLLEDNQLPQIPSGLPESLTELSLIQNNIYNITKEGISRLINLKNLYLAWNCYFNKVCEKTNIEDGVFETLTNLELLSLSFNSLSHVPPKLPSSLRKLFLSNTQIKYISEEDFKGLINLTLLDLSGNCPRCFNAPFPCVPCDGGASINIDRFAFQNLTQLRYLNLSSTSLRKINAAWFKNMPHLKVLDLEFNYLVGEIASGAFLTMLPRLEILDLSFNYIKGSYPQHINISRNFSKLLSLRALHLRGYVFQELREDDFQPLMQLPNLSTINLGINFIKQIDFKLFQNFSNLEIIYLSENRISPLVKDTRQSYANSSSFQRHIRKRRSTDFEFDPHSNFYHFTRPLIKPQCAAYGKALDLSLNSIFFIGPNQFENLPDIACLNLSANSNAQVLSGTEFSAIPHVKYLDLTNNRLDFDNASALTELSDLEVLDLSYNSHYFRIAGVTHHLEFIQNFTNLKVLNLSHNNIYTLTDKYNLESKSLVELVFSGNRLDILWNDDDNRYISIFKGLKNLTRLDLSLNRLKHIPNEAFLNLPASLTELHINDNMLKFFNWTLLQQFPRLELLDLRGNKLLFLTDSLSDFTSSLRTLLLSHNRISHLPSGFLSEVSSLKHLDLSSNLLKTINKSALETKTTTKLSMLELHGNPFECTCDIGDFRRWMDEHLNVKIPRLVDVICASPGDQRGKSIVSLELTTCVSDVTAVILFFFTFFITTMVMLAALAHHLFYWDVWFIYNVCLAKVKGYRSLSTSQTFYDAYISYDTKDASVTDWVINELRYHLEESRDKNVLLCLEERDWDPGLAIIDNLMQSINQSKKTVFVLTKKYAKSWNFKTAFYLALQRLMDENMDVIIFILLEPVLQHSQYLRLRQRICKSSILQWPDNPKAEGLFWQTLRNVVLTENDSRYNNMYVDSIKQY
Summary of the method: (§1)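 Read-out is SEAP colour from HEK-Blue Detection medium after 22 h at 37 °C, converted to percent inhibition between agonist-plus-DMSO and reference-inhibitor wells. Receptor-overexpressing HEK-Blue cells received compound over 0.05 nM–50 μM for 30 min before agonist: gardiquimod 7.5 μM for TLR7, R848 15.9 μM for TLR8, ODN2006 5 nM for TLR9.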

[2] = target: T2, human TLR7 (Homo sapiens, UniProt Q9NYK1); test: TLR7 inhibition reporter assay (HEK-Blue cells, secreted embryonic alkaline phosphatase reporter); details: HEK-Blue cells overexpressing human TLR7, stimulated with gardiquimod 7.5 μM; read-out: TLR 7 IC50
T2 construct: host or cells: HEK-Blue cells (HEK293-derived reporter line)
T2 sequence (Q9NYK1 27-1049): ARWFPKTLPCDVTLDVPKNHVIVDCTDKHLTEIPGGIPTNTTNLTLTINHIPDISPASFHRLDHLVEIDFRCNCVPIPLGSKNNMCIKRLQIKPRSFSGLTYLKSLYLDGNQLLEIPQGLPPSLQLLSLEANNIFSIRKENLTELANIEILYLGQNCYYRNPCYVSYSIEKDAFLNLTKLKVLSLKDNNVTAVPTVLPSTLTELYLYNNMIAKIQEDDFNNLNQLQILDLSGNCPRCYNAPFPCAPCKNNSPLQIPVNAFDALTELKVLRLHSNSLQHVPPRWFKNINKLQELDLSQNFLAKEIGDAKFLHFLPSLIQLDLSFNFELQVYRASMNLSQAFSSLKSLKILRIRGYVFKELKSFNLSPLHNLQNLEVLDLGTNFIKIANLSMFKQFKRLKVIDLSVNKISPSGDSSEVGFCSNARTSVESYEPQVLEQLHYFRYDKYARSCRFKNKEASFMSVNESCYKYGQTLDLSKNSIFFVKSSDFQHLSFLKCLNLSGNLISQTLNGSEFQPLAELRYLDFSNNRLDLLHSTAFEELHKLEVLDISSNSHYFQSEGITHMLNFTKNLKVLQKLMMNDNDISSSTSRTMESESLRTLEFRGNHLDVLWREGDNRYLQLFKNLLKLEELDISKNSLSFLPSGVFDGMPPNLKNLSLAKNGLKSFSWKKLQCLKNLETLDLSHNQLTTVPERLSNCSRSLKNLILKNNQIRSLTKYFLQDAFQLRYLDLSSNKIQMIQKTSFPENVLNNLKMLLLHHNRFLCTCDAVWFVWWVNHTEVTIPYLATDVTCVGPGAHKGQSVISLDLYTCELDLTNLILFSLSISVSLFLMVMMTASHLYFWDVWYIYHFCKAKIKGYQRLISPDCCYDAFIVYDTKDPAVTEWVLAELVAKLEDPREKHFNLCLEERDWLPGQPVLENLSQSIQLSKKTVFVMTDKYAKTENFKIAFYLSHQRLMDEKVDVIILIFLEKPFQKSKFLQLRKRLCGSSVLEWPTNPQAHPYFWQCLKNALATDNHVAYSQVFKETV
Summary of the method: as §1

[3] = target: T3, human TLR9 (Homo sapiens, UniProt Q9NR96); test: TLR9 inhibition reporter assay (HEK-Blue cells, secreted embryonic alkaline phosphatase reporter)
T3 construct: host or cells: HEK-Blue cells (HEK293-derived reporter line)
T3 sequence (Q9NR96 26-1032): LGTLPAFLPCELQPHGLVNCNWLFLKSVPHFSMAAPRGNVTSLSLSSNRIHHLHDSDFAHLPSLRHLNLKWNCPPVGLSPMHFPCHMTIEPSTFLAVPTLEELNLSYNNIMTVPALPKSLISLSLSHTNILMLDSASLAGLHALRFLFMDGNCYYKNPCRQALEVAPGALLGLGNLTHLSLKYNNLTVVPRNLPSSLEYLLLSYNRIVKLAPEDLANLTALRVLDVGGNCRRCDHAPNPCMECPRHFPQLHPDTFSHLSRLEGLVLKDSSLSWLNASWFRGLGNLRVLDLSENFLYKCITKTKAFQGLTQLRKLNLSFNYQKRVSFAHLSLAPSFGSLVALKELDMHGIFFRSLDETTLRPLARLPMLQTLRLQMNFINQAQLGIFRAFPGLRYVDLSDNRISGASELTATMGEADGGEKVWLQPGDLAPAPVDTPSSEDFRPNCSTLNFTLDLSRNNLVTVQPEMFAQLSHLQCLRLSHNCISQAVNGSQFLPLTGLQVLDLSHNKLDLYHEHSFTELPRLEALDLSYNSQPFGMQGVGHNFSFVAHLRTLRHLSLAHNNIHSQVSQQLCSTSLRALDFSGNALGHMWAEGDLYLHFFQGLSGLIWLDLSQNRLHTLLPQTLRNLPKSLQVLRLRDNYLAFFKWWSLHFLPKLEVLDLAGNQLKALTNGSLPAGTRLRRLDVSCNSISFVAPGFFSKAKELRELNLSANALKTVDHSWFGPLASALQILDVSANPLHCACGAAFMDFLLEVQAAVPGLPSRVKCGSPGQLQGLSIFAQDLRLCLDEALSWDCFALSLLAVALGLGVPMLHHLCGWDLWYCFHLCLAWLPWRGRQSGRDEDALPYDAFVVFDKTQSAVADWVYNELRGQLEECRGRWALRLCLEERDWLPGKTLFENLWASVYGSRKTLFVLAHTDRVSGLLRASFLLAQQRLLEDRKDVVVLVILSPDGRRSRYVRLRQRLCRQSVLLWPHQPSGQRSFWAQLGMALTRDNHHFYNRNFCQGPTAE
Summary of the method: as §1

[4] = HEK-Blue cells overexpressing human TLR9, stimulated with ODN2006 5 nM, read-out: TLR 9 IC50
[5] = HEK-Blue human TLR9 reporter cells

Row | IC50 [1] | IC50 [2] | IC50 [3, 4] | IC50 [3, 5] | Structure (SMILES)
1 | > 50 µM | 1.9 µM | 0.036 µM | 0.036 µM | CS(=O)(=O)c1ccc(-c2nc3c(F)cc(C4CCN(C5CCN(C6CCOCC6)CC5)CC4)cc3n2C2CC2)cc1 [Example 321, 1-cyclopropyl-4-fluoro-2-(4-(methylsulfonyl)phenyl)-6-(1′-(tetrahydro-2H-pyran-4-yl)-[1,4′-bipiperidin]-4-yl)-1H-benzo[d]imidazole]
2 | > 50 µM | 2.3 µM | 0.012 µM | 0.012 µM | CS(=O)(=O)c1ccc(-c2nc3c(F)cc(C4CCN(C5CC6CCC(C5)N6C5CCOCC5)CC4)cc3n2C2CC2)cc1 (centres unmarked) [Example 328, 1-cyclopropyl-4-fluoro-2-(4-(methylsulfonyl)phenyl)-6-(1-(8-(tetrahydro-2H-pyran-4-yl)-8-azabicyclo[3.2.1]octan-3-yl)piperidin-4-yl)-1H-benzo[d]imidazole]
3 | > 50 µM | 1.2 µM | 0.028 µM | 0.028 µM | CS(=O)(=O)c1ccc(-c2nc3c(F)cc(C4CCN(C5CC6CCC(C5)N6C5CCOCC5)CC4)cc3n2C2CC2)cc1 (centres unmarked) [Example 329, 1-cyclopropyl-4-fluoro-2-(4-(methylsulfonyl)phenyl)-6-(1-(8-(tetrahydro-2H-pyran-4-yl)-8-azabicyclo[3.2.1]octan-3-yl)piperidin-4-yl)-1H-benzo[d]imidazole]
4 | > 50 µM | > 50 µM | 0.172 µM | 0.17 µM | Cc1cc(C2CCN(C3CC4CCC(C3)N4C(C)C)CC2)cc2[nH]c(-c3ccc(S(C)(=O)=O)cc3)nc12 (centres unmarked) [Example 332, 6-(1-(8-isopropyl-8-azabicyclo[3.2.1]octan-3-yl)piperidin-4-yl)-4-methyl-2-(4-(methylsulfonyl)phenyl)-1H-benzo[d]imidazole]
5 | > 50 µM | > 50 µM | 0.329 µM | 0.33 µM | Cc1cc(C2CCN(C3CC4CCC(C3)N4C(C)C)CC2)cc2[nH]c(-c3ccc(S(C)(=O)=O)cc3)nc12 (centres unmarked) [Example 333, 6-(1-(8-isopropyl-8-azabicyclo[3.2.1]octan-3-yl)piperidin-4-yl)-4-methyl-2-(4-(methylsulfonyl)phenyl)-1H-benzo[d]imidazole]
6 | > 50 µM | > 50 µM | 0.296 µM | 0.3 µM | Cc1cc(C2CCN(C3CC4CCC(C3)N4C3CCC3)CC2)cc2[nH]c(-c3ccc(S(C)(=O)=O)cc3)nc12 (centres unmarked) [Example 334, 6-(1-(8-cyclobutyl-8-azabicyclo[3.2.1]octan-3-yl)piperidin-4-yl)-4-methyl-2-(4-(methylsulfonyl)phenyl)-1H-benzo[d]imidazole]
7 | > 50 µM | > 50 µM | 0.13 µM | 0.13 µM | Cc1cc(C2CCN(C3CC4CCC(C3)N4CC3CC3)CC2)cc2[nH]c(-c3ccc(S(C)(=O)=O)cc3)nc12 (centres unmarked) [Example 335, 6-(1-(8-(cyclopropylmethyl)-8-azabicyclo[3.2.1]octan-3-yl)piperidin-4-yl)-4-methyl-2-(4-(methylsulfonyl)phenyl)-1H-benzo[d]imidazole]
8 | > 50 µM | 25.4 µM | 0.077 µM | 0.077 µM | Cc1cc(C2CCN(C3CC4CCC(C3)N4CC3CC3)CC2)cc2[nH]c(-c3ccc(S(C)(=O)=O)cc3)nc12 (centres unmarked) [Example 336, 6-(1-(8-(cyclopropylmethyl)-8-azabicyclo[3.2.1]octan-3-yl)piperidin-4-yl)-4-methyl-2-(4-(methylsulfonyl)phenyl)-1H-benzo[d]imidazole]
9 | > 50 µM | 1.2 µM | 0.053 µM | 0.053 µM | Cc1cc(C2CCN(C3CCN(C4CCC4)CC3)CC2)cc2c1nc(-c1ccc(S(C)(=O)=O)c(F)c1)n2C [Example 337, 6-(1′-cyclobutyl-[1,4′-bipiperidin]-4-yl)-2-(3-fluoro-4-(methylsulfonyl)phenyl)-1,4-dimethyl-1H-benzo[d]imidazole]
10 | > 50 µM | 3.8 µM | 0.258 µM | 0.26 µM | Cc1cc(C2CCN(C3CCN(CC4CC4)CC3)CC2)cc2c1nc(-c1ccc(S(C)(=O)=O)c(F)c1)n2C [Example 338, 6-(1′-(cyclopropylmethyl)-[1,4′-bipiperidin]-4-yl)-2-(3-fluoro-4-(methylsulfonyl)phenyl)-1,4-dimethyl-1H-benzo[d]imidazole]
11 | > 25 µM | 12.7 µM | 0.343 µM | 0.34 µM | Cc1cc(C2CCN(C3CCN(C4CC4)CC3)CC2)cc2c1nc(-c1ccc(S(C)(=O)=O)c(F)c1)n2C [Example 339, 6-(1′-cyclopropyl-[1,4′-bipiperidin]-4-yl)-2-(3-fluoro-4-(methylsulfonyl)phenyl)-1,4-dimethyl-1H-benzo[d]imidazole]
